Each structure is given as a SMILES string. Calls of active or inactive are those of the source. The rule behind the calls is not given here.

In data set [1] the test system is SK-MEL-2. Put plainly: Inhibition of G9a in nude mouse xenografted with human SK-MEL-2 cells assessed as decrease in H3K9 methylation at 25 mg/kg. The class given is functional, organism-based.
In data set [2] the target is T1, Inactive serine/threonine-protein kinase 19 (Homo sapiens) (UniProt P49842).
T1 sequence (whole entry): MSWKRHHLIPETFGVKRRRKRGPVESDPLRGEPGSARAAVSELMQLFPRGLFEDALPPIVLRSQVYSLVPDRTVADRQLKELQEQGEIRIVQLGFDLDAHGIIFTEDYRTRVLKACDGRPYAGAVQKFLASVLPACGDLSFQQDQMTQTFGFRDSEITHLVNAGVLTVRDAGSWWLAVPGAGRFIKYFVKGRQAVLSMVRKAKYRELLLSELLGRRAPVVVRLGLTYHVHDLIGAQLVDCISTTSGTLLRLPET
Kind of data set: Inhibition of STK19 in human WM2032 cells expressing NRAS Q61R and wild-type BRAF at 1-3 uM assessed as PI3K signaling relative to control. The class given is cell-based.

Data set [3] in a line: Toxicity in C57BL/6J mouse assessed as lung histology at 25 mg/kg, administered twice daily for 20 days by H and E staining method. Type of data set: organism-based. The note with it: in vivo, 480 h.
Data set [4] has as its system SK-MEL-2. Kind of data set: Inhibition of STK19 in nude mouse xenografted with human SK-MEL-2 cells assessed as decrease in NRAS phosphorylation at 50 mg/kg. The class given is functional, organism-based. A general note: Xenograft models place foreign cells or tissue in a host animal.
Data set [5] is described as follows: Toxicity in C57BL/6J mouse assessed as effect on lactic dehydrogenase level at 25 mg/kg, administered twice daily for 20 days. Type of data set: organism-based. The settings on record: in vivo, 480 h.
In data set [6] the target is T2, Histone-lysine N-methyltransferase EHMT2 (Homo sapiens) (UniProt Q96KQ7).
T2 sequence (whole entry): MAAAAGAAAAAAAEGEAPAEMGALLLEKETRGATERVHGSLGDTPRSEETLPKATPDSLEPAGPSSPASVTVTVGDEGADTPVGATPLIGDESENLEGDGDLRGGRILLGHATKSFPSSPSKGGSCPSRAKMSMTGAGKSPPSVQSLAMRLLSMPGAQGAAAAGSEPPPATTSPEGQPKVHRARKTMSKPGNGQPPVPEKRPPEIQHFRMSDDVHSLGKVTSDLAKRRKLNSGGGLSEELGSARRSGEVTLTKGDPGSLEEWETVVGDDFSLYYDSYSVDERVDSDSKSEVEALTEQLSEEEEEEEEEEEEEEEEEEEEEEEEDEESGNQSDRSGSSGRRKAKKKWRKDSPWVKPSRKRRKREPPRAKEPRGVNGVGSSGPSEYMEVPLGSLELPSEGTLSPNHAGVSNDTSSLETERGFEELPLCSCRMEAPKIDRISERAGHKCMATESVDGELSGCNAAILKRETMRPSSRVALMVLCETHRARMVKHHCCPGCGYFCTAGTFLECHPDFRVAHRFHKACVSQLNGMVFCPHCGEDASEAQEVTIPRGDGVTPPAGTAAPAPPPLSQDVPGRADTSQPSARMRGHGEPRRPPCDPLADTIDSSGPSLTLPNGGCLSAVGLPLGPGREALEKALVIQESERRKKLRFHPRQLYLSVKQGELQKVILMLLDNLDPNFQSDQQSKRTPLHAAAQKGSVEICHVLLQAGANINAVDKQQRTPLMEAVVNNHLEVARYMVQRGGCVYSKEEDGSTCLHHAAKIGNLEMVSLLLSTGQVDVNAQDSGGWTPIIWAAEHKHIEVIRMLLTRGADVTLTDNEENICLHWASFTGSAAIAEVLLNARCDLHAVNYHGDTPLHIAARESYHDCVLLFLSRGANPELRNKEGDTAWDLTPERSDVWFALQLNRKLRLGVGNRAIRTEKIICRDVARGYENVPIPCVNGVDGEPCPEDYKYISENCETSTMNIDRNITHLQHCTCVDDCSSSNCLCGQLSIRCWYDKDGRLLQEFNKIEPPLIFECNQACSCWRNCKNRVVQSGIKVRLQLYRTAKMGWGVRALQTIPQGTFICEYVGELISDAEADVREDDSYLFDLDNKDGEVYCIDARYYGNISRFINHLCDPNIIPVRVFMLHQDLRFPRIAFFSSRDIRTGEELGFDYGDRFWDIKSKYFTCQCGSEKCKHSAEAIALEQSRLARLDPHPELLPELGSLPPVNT
Kind of data set: Inhibition of G9a in human WM2032 cells expressing NRAS Q61R and wild-type BRAF at 100-300 nM relative to control. Type of data set: cell-based.

Data set [7] is described as follows: Toxicity in C57BL/6J mouse assessed as effect on total protein level at 25 mg/kg, administered twice daily for 20 days. The class given is organism-based. The settings on record: in vivo, 480 h.
Data set [8] relates to SK-MEL-2. Kind of data set: Inhibition of STK19 in nude mouse xenografted with human SK-MEL-2 cells assessed as decrease in NRAS phosphorylation at 25 mg/kg. The class given is functional, organism-based.
Data set [9] can be described thus: Toxicity in C57BL/6J mouse assessed as effect on alanine aminotransferase level at 25 mg/kg, administered twice daily for 20 days. The class given is organism-based. The note with it: in vivo, 480 h.
Data set [10] addresses T1, Inactive serine/threonine-protein kinase 19 (Homo sapiens). Put plainly: Inhibition of STK19 in human A375 cells expressing wild-type NRAS and BRAF V600E mutant at 1-3 uM assessed as PI3K signaling relative to control. The class given is cell-based. The settings on record: A-375.
Data set [11] has as its system SK-MEL-2. Kind of data set: Antitumor activity against human SK-MEL-2 cells xenografted in nude mouse assessed as tumor growth inhibition. Type of data set: functional.
In the next data set the test system is hTERT. Kind of data set: Inhibition of colony formation in hTERT/p53DD/CDK4 (R24C) immortal melanocytes expressing wild-type STK19 at 3 uM relative to control. The class given is functional. The settings on record: Homo sapiens.
Data set [12] deals with T1, Inactive serine/threonine-protein kinase 19 (Homo sapiens). Kind of data set: Inhibition of STK19 in human WM2032 cells expressing NRAS Q61R and wild-type BRAF at 1-3 uM assessed as NRAS signaling relative to control. The class given is cell-based.
The subject of data set [13] is T3, Inactive serine/threonine-protein kinase 19 (Homo sapiens), P49842 [D89N].
T3 sequence (whole entry): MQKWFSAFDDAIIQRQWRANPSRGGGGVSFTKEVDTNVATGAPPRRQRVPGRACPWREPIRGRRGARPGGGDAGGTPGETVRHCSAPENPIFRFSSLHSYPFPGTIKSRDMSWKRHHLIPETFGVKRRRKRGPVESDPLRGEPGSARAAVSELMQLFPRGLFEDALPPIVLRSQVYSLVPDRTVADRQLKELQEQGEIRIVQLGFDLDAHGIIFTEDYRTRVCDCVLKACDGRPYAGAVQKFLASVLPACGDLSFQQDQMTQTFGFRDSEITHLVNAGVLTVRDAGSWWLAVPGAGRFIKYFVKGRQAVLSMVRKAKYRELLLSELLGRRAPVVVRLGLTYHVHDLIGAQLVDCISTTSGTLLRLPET
Put plainly: Inhibition of STK19 D89N mutant in human primary melanocytes at 0.1-3 uM relative to control. Type of data set: cell-based.

Data set [14] can be described thus: Toxicity in nude mouse xenografted with human SK-MEL-2 cells assessed as increase in animal survival at 50 mg/kg. The class given is organism-based. The settings on record: in vivo.
In data set [15] the target is T1, Inactive serine/threonine-protein kinase 19 (Homo sapiens). Kind of data set: Inhibition of STK19 in human UACC62 cells expressing wild-type NRAS and BRAF V600E mutant at 1-3 uM assessed as NRAS signaling relative to control. The note with it: UACC-62. The class given is cell-based.
Data set [16] shares this target. Put plainly: Inhibition of STK19 in human A375 cells expressing wild-type NRAS and BRAF V600E mutant at 1-3 uM assessed as NRAS signaling relative to control. The class given is cell-based. The note with it: A-375.

Consider `COc1cc2nc(NC3CC3)nc(NC3CCN(C(C)C)CC3)c2cc1OC.O=C(O)C(F)(F)F`, for which the inhibition entry (in the data set with SK-MEL-2 [1]; in data set [6]; in data set [10]; in data set [15]; in data set [16]) was “inactive” throughout. Besides, the inhibition entry (in [2]; in the data set with SK-MEL-2 [4]; in the data set on SK-MEL-2 [8]; in [12]; in data set [13]) was “Active” throughout. The Activity result in data set [3], in data set [5], in data set [7], in data set [9] and in data set [14] was “Non-Toxic” in each case. The TGI entry with SK-MEL-2 [11] was “Dose-Dependent Effect”. The outcome in the data set with hTERT was Active.

(Values after ChEMBL document CHEMBL4804283, “Stk19 inhibitors for treatment of cancer” (2020).)
